# Assay results as given in ChEMBL document CHEMBL3351541, “Synthesis and analysis of potential α1,3-fucosyltransferase inhibitors” (Bioorg Med Chem, 2014).
# Activity calls are given as the source filed them. The calls are words filed in the database; no cut-off is given here.
# How the values were obtained:
# [1] = biological target: T1, 4-galactosyl-N-acetylglucosaminide 3-alpha-L-fucosyltransferase 9 (Homo sapiens) (UniProt Q9Y231); test: (§1) Inhibition of human recombinant alpha1,3-fucosyltransferase 9 using GDP-[14C]-fucose preincubated for 30 mins by liquid scintillation counting; parameters: concentration or dose not given beside the values
# T1 sequence (whole entry): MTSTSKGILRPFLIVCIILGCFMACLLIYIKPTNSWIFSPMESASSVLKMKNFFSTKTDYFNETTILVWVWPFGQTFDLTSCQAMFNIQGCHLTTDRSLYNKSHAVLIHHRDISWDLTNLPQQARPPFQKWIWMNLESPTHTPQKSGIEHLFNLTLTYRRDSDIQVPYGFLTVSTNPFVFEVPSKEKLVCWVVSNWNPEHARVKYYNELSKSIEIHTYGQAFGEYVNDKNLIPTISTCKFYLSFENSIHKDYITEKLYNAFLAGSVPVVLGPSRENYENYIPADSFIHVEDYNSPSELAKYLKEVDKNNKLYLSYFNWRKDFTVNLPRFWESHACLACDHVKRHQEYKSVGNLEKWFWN
# [2] = test system: Helicobacter pylori; test: Inhibition of Helicobacter pylori recombinant alpha1,3-fucosyltransferase using GDP-[14C]-fucose preincubated for 30 mins by liquid scintillation counting
# [3] = biological target: T2, 4-galactosyl-N-acetylglucosaminide 3-alpha-L-fucosyltransferase 9 (Homo sapiens, UniProt Q9Y231); test: as §1
# T2 sequence (Q9Y231 whole entry): T1 sequence (whole entry)
# [4] = test system: Helicobacter pylori; test: Inhibition of Helicobacter pylori recombinant alpha1,3-fucosyltransferase using GDP-[14C]-fucose assessed as remaining activity preincubated for 30 mins by liquid scintillation counting
inhibition [1],inhibition [2],IC50 [3],Ki [3],Activity [4],Compound
inactive,Active,,,,Nc1ncnc2c1ncn2[C@@H]1O[C@H](COP(=O)(O)OP(=O)(O)O)[C@@H](O)[C@H]1O
inactive,45%,,,,CC(=O)Nc1nc2c(ncn2[C@@H]2O[C@H](COP(=O)(O)OP(=O)(O)OCc3cn([C@@H]4O[C@H](COC(C)=O)[C@H](OC(C)=O)[C@H](OC(C)=O)[C@H]4OC(C)=O)nn3)[C@@H](OC(C)=O)[C@H]2OC(C)=O)c(=O)[nH]1
,< 75%,59 µM,77.9 µM,,Nc1nc2c(ncn2[C@@H]2O[C@H](COP(=O)(O)OP(=O)(O)O)[C@@H](O)[C@H]2O)c(=O)[nH]1
78%,,104 µM,102 µM,,NC[C@@H]1O[C@H](OP(=O)(O)OP(=O)(O)OC[C@H]2O[C@@H](n3cnc4c(=O)[nH]c(N)nc43)[C@H](O)[C@@H]2O)[C@@H](O)[C@H](O)[C@@H]1O
< 75%,< 75%,94 µM,80.7 µM,,Nc1nc2c(ncn2[C@@H]2O[C@H](COP(=O)(O)OP(=O)(O)OP(=O)(O)O)[C@@H](O)[C@H]2O)c(=O)[nH]1 [GUANOSINE TRIPHOSPHATE]
inactive,Active,,,,C[C@@H](O)[C@H](O)[C@H](O)[C@@H](O)C=O
inactive,Active,,,,Nc1nc2c(ncn2[C@@H]2O[C@H](COP(=O)(O)O)[C@@H](O)[C@H]2O)c(=O)[nH]1
45%,,,,,Nc1nc2c(ncn2[C@@H]2O[C@H](COP(=O)(O)OP(=O)(O)OCc3cn([C@@H]4O[C@H](CO)[C@@H](O[C@@H]5O[C@H](CO)[C@H](O)[C@H](O)[C@H]5O)[C@H](O)[C@H]4O)nn3)[C@@H](O)[C@H]2O)c(=O)[nH]1
< 80%,,49 µM,50.3 µM,60%,Nc1nc2c(ncn2[C@H]2C[C@H](O)[C@@H](CO[P@](=O)(O)OP(=O)(O)O)O2)c(=O)[nH]1
,,247 µM,186 µM,,Nc1nc2c(ncn2[C@@H]2O[C@H](COP(=O)(O)OP(=O)(O)OCc3cn([C@@H]4O[C@H](CO)[C@H](O)[C@H](O)[C@H]4O)nn3)[C@@H](O)[C@H]2O)c(=O)[nH]1
,,134 µM,190 µM,,C[C@H]1O[C@@H](n2cc(COP(=O)(O)OP(=O)(O)OC[C@H]3O[C@@H](n4cnc5c(=O)[nH]c(N)nc54)[C@H](O)[C@@H]3O)nn2)[C@H](O)[C@@H](O)[C@H]1O
,,139 µM,137 µM,,C[C@@H]1O[C@H](n2cc(COP(=O)(O)OP(=O)(O)OC[C@H]3O[C@@H](n4cnc5c(=O)[nH]c(N)nc54)[C@H](O)[C@@H]3O)nn2)[C@@H](O)[C@H](O)[C@@H]1O

Compound,inhibition [1],inhibition [2],IC50 [3],Ki [3],Activity [4]
O=c1[nH]cnc2c1ncn2[C@@H]1O[C@H](COP(=O)(O)OP(=O)(O)O)[C@@H](O)[C@H]1O,30%,65%,,,
